Measured values published in patent US6342508B1, “N-hydroxy-2-(Alkyl,Aryl or Heteroaryl sulfanyl, sulfinyl or sulfonyl) 3-substituted alkyl, aryl or heteroarylamides as matrix metalloproteinase inhibitors” (American Cyanamid Company, priority 1997, dated 2002).
Counter-ions that a name gives are not always drawn.

Molecular target: T1, TACE (Homo sapiens, UniProt P78536)
T1 construct: purchased Immunex
Test: Procedure for Measuring TACE Inhibition (fluorescent peptidyl substrate)
Assay type: biochemical
Settings: 1 mM
Protocol: Using 96-well black microtiter plates, each well recieves a solution composed of 10 μL TACE (Immunex, final concentration 1 μg/mL), 70 μL Tris buffer, pH 7.4 containing 10% glycerol (final concentration 10 mM), and 10 μL of test compound solution in DMSO (final concentration, DMSO concentration <1%) and incubated for 10 minutes at room temperature. The reaction is initiated by addition of a fluorescent peptidyl substrate (final concentration 100 μM) to each well and then shaking on a shaker for 5 sec. The reaction is read (excitation 340 nm, emission 420 nm) for 10 min. and the increase in fluorescence over time is plotted as a linear line. The slope of the line is calculated and represents the reaction rate. […] The mean (x±sem) of the control rate is calculated and compared for statistical significance (p<0.05) with drug-treated rates using Dunnett's multiple comparison test.

T1 sequence (P78536 215-824): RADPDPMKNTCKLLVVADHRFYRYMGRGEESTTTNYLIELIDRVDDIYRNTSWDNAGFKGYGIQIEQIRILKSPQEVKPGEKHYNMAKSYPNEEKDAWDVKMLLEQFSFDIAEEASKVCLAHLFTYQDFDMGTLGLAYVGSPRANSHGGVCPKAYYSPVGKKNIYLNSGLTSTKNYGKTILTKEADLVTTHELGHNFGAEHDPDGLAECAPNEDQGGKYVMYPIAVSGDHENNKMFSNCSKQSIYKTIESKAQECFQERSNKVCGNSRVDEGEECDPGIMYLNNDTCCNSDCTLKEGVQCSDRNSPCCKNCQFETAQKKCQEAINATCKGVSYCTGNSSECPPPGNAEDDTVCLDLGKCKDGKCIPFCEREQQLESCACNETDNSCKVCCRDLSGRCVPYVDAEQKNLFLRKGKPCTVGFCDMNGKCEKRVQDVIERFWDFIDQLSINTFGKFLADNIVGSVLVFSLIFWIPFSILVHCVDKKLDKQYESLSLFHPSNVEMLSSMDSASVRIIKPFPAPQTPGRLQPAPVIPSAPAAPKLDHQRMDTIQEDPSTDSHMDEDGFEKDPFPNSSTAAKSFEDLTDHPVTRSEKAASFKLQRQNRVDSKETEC

Going from CCCCCCC(C(=O)NO)[S+]([O-])c1ccc(NS(=O)(=O)c2cc(Cl)sc2Cl)cc1 (centres unmarked) [Example 236, 2,5-Dichloro-thiophene-3-sulfonic acid 4-(1-hydroxycarbamoyl-heptylsulfinyl)-hydroxyamide] to “(1-Hydroxycarbamoyl-propane-1-sulfanyl)-propionic acid hydroxyamide [Example 122]”, the “TACE % inhibition at 1 mM” value falls from 35% to 3.1%.

Going from “(1-Hydroxycarbamoyl-propane-1-sulfinyl)-acetic acid hydroxy amide [Example 121]” to CCCCCCC(Sc1ccc(NS(=O)(=O)CC)cc1)C(=O)NO (centres unmarked) [Example 234, Ethanesulfonic acid 4(1-hydroxycarbamoyl-heptylsulfanyl)-hydroxyamide], the “TACE % inhibition at 1 mM” value rises from 6.1% to 18.4%.

Same assay, conditions: read-out: TACE IC 50

With COc1ccc(S(=O)(=O)C(C/C=C(\C)CCC=C(C)C)(Cc2ccc(OCCN3CCOCC3)cc2)C(=O)NO)cc1 (centres unmarked) [Example 26, (4E)-2-(4-Methoxy-benzenesulfonyl)-5,9 dimethyl-2-(4-(2-morpholin-4-yl-ethoxy)-benzyl]-deca-4,8-dienoic acid hydroxyamide] the IC50 was 34.6 nM.

Tested on: not given
Test: not given
Settings: not given

Going from CCCCN1CCC(C(=O)NO)(S(=O)(=O)c2ccc(OC)cc2)CC1 [Example 93, 1-Butyl-4-(4-methoxy-benzenesulfonyl)-piperidine-4-carboxylic acid hydroxyamide] to COc1ccc(S(=O)(=O)C2(C(=O)NO)CCN(CCc3ccccc3)CC2)cc1 (as salt: HCl) [Example 103, 4-(4-methoxy-benzenesulfonyl)-1-(2-phenyl-ethyl)-piperidine-4-carboxylic acid hydroxyamide], the melting point rises from 75 °C to 205 °C.

Compared with CCCCCC(Sc1ccc(OC)cc1)C(=O)NO (centres unmarked) [Example 80, 2-(4methoxy-phenylsulfanyl)-heptanoic acid hydroxyamide], COc1ccc(SC(C(=O)NO)C(C)C)cc1 (centres unmarked) [Example 4, N-Hydroxy-2-(4methoxy-phenylsulfanyl)-3-methyl-butyramide] is higher in melting point: 90 to 95 °C for the first, 119 °C for the second.

Going from CCC(Cc1ccc(OCCN2CCOCC2)cc1)(C(=O)NO)S(=O)(=O)c1ccc(OC)cc1 (centres unmarked) [Example 33, N-Hydroxy-2-(4-methoxy-benzenesulfonyl)-2-[4-(2-morpholin-4yl-ethoxy)-benzyl]-butyramide] to COc1ccc(S(=O)(=O)C(C)(Cc2cccc(OCCN3CCOCC3)c2)C(=O)NO)cc1 (centres unmarked) [Example 30, N-Hydroxy-2-(4-methoxy-benzenesulfonyl)-2-methyl-3-[3-(2-morpholin-1-yl-ethoxy)-phenyl]-propionamide], the melting point rises from 51 °C to 63 °C.

Compared with COc1ccc(S(=O)(=O)C(C)(Cc2cccnc2)C(=O)NO)cc1 (centres unmarked) [Example 61, N-hydroxy-2-(4-methoxy-benzenesulfonyl)-2-methyl-3-pyridin-3-yl-propionamide], COc1ccc(S(=O)(=O)C(C)(Cc2ccccc2)C(=O)NO)cc1 (centres unmarked) [Example 12, N-Hydroxy-2-(4-methoxy-benzenesulfonyl)-2-methyl-3-phenyl-propionamide] is lower in melting point: 98 °C for the first, 58 °C for the second.

First: COc1ccc(S(=O)(=O)C(C)(CC=Cc2ccccc2)C(=O)NO)cc1 (centres unmarked) [Example 56, 2-(4-methoxy-benzenesulfonyl)-2-methyl-5-phenyl-pent-4-enoic acid hydroxyamide]
Second: COc1ccc(S(=O)(=O)C(C)(Cc2ccc3ccccc3c2)C(=O)NO)cc1 (centres unmarked) [Example 52, N-hydroxy-2-(4-methoxy-benzenesulfonyl)-2-methyl-3-naphthalen-2-yl-propionamide]
The melting point of the first is lower: 162 to 164 °C for the first, 185 to 187 °C for the second.

First: COc1ccc([S+]([O-])C(C)(CC=C(C)C)C(=O)NO)cc1 (centres unmarked) [Example 6, 2-(4-Methoxy-benzenesulfinyl)-2,5-dimethyl-hex-4-enoic acid hydroxyamide]
Second: C=CCC(CC=C)(C(=O)NO)S(=O)(=O)c1ccc(OC)cc1 [Example 58, 2-allyl-2-(4-methoxy-benzenesulfonyl)-pent-4-enoic acid hydroxyamide]
The melting point of the first is lower: 108 °C for the first, 114 to 116 °C for the second.

Compared with COc1ccc(S(=O)(=O)C(CCC(C)C)(Cc2cccnc2)C(=O)NO)cc1 (centres unmarked) (as salt: HCl) [Example 69, 2-(4-Methoxy-benzenesulfonyl)-5-methyl-2-pyridin-3-ylmethyl-hexanoic acid hydroxyamide], COc1ccc(S(=O)(=O)C(Cc2cccnc2)(CC2CCCCC2)C(=O)NO)cc1 (centres unmarked) (as salt: hydrochloride) [Example 65, 3-Cyclohexyl-N-hydroxy-2-(4-methoxy-benzenesulfonyl)2-pyridin-3-ylmethyl-propionamide] is lower in melting point: 62 °C for the first, 57 to 60 °C for the second.

Compared with CCCCCCCCCCCCC(C(=O)NO)S(=O)(=O)c1ccc(OC)cc1 (centres unmarked) [Example 11, 2-(4-Methoxy-benzenesulfonyl)-tetradecanoic hydroxyamide], CCCCC(C(=O)NO)S(=O)(=O)c1ccc(OC)cc1 (centres unmarked) [Example 10, 2-(4-Methoxy-benzenesulfonyl)-hexanoic acid hydroxyamide] is higher in melting point: 114 °C for the first, 130 °C for the second.

Compared with CCN(CC)CCOc1ccc(CC(C)(C(=O)NO)S(=O)(=O)c2ccc(OC)cc2)cc1 (centres unmarked) (as salt: HCl) [Example 21, N-Hydroxy-2-(4-methoxy-benzenesulfonyl)-2-methyl-3-[4-(2-N,N-diethylamino-ethoxy)-phenyl]-propionamide], CCCCC(Cc1ccc(OCCN(CC)CC)cc1)(C(=O)NO)S(=O)(=O)c1ccc(OC)cc1 (centres unmarked) [Example 27, 2-[4-(2-Diethylamino-ethoxy)-benzyl]-2-(4-methoxy-benzenesulfonyl)-hexanoic acid hydroxyamide] is higher in melting point: 56 to 59 °C for the first, 67 °C for the second.

First: Cn1ccnc1S(=O)(=O)C(C)(Cc1ccc(-c2ccccc2)cc1)C(=O)NO (centres unmarked) [Example 47, 3-Biphenyl-4-yl-2-methyl-2-(1-methyl-1H-imidazole-2-sulfonyl)-propionic acid hydroxyamide]
Second: COc1ccc(S(=O)(=O)C(C)(Cc2ccc(Br)cc2)C(=O)NO)cc1 (centres unmarked) [Example 51, 3-(4-Bromo-phenyl)-N-hydroxy-2-(4-methoxy-benzenesulfonyl)-2-methyl-propionamide]
The melting point of the first is higher: 112 °C for the first, 86 to 88 °C for the second.

First: CC#CCC(CC#CC)(C(=O)NO)S(=O)(=O)c1ccc(OC)cc1 [Example 72, 2-(4-Methoxy-benzenesulfonyl)-2-but-2-ynyl-hex-4-ynoic acid hydroxyamide]
Second: C#CCC(CC#C)(C(=O)NO)S(=O)(=O)c1ccc(OC)cc1 [Example 73, 2-(4-Methoxy-benzenesulfonyl)-2-prop-2-ynyl-pent-4-ynoic acid hydroxyamide]
The melting point of the first is lower: 141 to 143 °C for the first, 156 °C for the second.

Compared with COc1ccc(S(=O)(=O)C(C)(Cc2ccc(OCCN3CCCCCC3)cc2)C(=O)NO)cc1 (centres unmarked) [Example 18], COc1ccc(S(=O)(=O)C(C)(Cc2cccc(OCCN3CCCCC3)c2)C(=O)NO)cc1 (centres unmarked) [Example 22, N-Hydroxy-2-(4-methoxy-benzenesulfonyl)-2-methyl-3-[3-(2-piperidin-1-yl-ethoxy)-phenyl]-propionamide] is higher in melting point: 68 °C for the first, 74 °C for the second.

First: COc1ccc(S(=O)(=O)C2(C(=O)NO)CCN(Cc3cccc(OC)c3)CC2)cc1 [Example 84, 4-(4-methoxy-benzenesulfonyl)-1-(3-methoxy-benzyl)-piperidine-4-carboxylic acid hydroxyamide]
Second: COc1ccc(S(=O)(=O)C2(C(=O)NO)CCN(Cc3ccc(C)cc3)CC2)cc1 [Example 86, 4-(4-methoxy-benzenesulfonyl)-1-(4-methylbenzyl)-piperidine-4-carboxylic acid hydroxamide]
The melting point of the first is lower: 130 °C for the first, 176 to 177 °C for the second.

Compared with COc1ccc(SC(C)(Cc2ccccc2)C(=O)NO)cc1 (centres unmarked) [Example 1, N-Hydroxy-2-(4-methoxy-phenylsulfanyl)-2-methyl-3-phenyl-propionamide], COc1ccc(SC(C(=O)NO)c2ccccc2)cc1 (centres unmarked) [Example 2, N-Hydroxy-2-(4-methoxy-phenylsulfanyl)-2-phenyl-acetamide] is higher in melting point: 88 °C for the first, 155 °C for the second.

First: COc1ccc(S(=O)(=O)C2(C(=O)NO)CCN(Cc3ccc(Cl)c(Cl)c3)CC2)cc1 [Example 85, 1-(3,4-dichlorobenzyl)-4-(4-methoxy-benzenesulfonyl)-piperidine-4-carboxylic acid hydroxamide]
Second: CCCCOc1ccc(S(=O)(=O)C2(C(=O)NO)CCN(Cc3ccc(OC)cc3)CC2)cc1 (as salt: HCl) [Example 104, 4-(4-n-Butoxy-benzenesulfonyl)-1-(4-methoxy-benzyl)-piperidine-4-carboxylic acid hydroxyamide]
The melting point of the first is higher: 192 to 195 °C for the first, 173 °C for the second.

Going from COc1ccc(S(=O)(=O)C2(C(=O)NO)CCN(Cc3ccc(OCCN4CCCCC4)cc3)CC2)cc1 (as salt: HCl) [Example 109, 4-(4-Methoxy-benzenesulfonyl)-1-[4-(2-piperidin-1-yl-ethoxy)-benzyl]-piperidine-4-carboxylic acid hydroxyamide] to CCCCOc1ccc(S(=O)(=O)C2(C(=O)NO)CCN(Cc3ccc(F)cc3)CC2)cc1 [Example 100, 1-(4-Fluoro-benzyl)-4-(4-butoxy-benzenesulfonyl)-piperidine-4-carboxylic acid hydroxyamide], the melting point falls from 114 °C to 112 °C.

CCCCCC#CCC(Cc1cccnc1)(C(=O)NO)S(=O)(=O)c1ccc(F)cc1 (centres unmarked) (as salt: salt) [Example 77, 2-(4-Fluoro-benzenesulfonyl)-2-pyridin-3-ylmethyl-dec-4-ynoic acid hydroxyamide] gave a melting point of 180 to 182 °C.
